Experimental data taken from patent US20130052145A1, “ADHESIVE SLOW-RELEASE FORMULATIONS FOR THE LOCAL ADMINISTRATION OF CURCUMIN” (Orphanidis Pharma Research GmbH, priority 2010, published 2013).

How the values were obtained:
[1] = Solubility studies with curcumin in organic solvents and solvent + water mixtures; type: physicochemical
Experimental: For oral solutions, curcumin must be dissolved. The solvents listed in Table 1 have been tested for this purpose. The maximum concentration of curcumin that could be dissolved is listed for each solvent. If curcumin was soluble, water was added to the solvents and the solubility in this mixture was also determined: […]

[2] = Storage stability of liquid curcumin formulations under accelerated conditions (HPLC); type: physicochemical

SMILES: COc1cc(/C=C/C(=O)CC(=O)/C=C/c2ccc(O)c(OC)c2)ccc1O [curcumin]
- % Solubility (w/v) ([1]; Collidone 12 + water 4 + 6): 0 % (w/v)
- % Solubility (w/v) ([1]; Collidone12 + water 5 + 5): 0 % (w/v)
- % Solubility (w/v) ([1]; Collidone 17 + water 4 + 6): 0 % (w/v)
- % Solubility (w/v) ([1]; Collidone 17 + water 5 + 5): 0 % (w/v)
- % Solubility (w/v) ([1]; N-Ethyl-2-pyrrolidone + water 6 + 4): 4 % (w/v)
- % Solubility (w/v) ([1]; N-Ethyl-2-pyrrolidone + water 7 + 3): 5 % (w/v)
- % Solubility (w/v) ([1]; N-Methyl-2-pyrrolidone + water 6 + 4): 4 % (w/v)
- % Solubility (w/v) ([1]; N-Methyl-2-pyrrolidone + water 7 + 3): 4 % (w/v)
- % Solubility (w/v) ([1]; PEG 300 + water 8 + 2): 2.5 % (w/v)
- % Solubility (w/v) ([1]; PEG 300 + water 9 + 1): 2.5 % (w/v)
- % Solubility (w/v) ([1]; PVP + water 3 + 7): 0 % (w/v)
- % Solubility (w/v) ([1]; Pluronic F-68 + water 3 + 7): 0 % (w/v)
- % Solubility (w/v) ([1]; Pyrrolidone + water 1 + 9): 1 % (w/v)
- % Solubility (w/v) ([1]; Pyrrolidone + water 5 + 5): 2.5 % (w/v)
- % Solubility (w/v) ([1]; Pyrrolidone + water 6 + 4): 3 % (w/v)
- % Solubility (w/v) ([1]; Pyrrolidone + water 7 + 3): 5 % (w/v)
- % Solubility (w/v) ([1]; Pyrrolidone + water 9 + 1): 5 % (w/v)
- % Solubility (w/v) ([1]; solvent Capmul): 0 % (w/v)
- % Solubility (w/v) ([1]; solvent Cremophor): 0 % (w/v)
- % Solubility (w/v) ([1]; solvent Dimethylacetamide): 4 % (w/v)
- % Solubility (w/v) ([1]; solvent Glycerol): 0 % (w/v)
- % Solubility (w/v) ([1]; solvent Hydrogenated peanut oil): 0 % (w/v)
- % Solubility (w/v) ([1]; solvent Labrafil): 3 % (w/v)
- % Solubility (w/v) ([1]; solvent Labrasol): 0 % (w/v)
- % Solubility (w/v) ([1]; solvent N-Ethyl-2-pyrrolidone): 30 % (w/v)
- % Solubility (w/v) ([1]; solvent N-Methyl-2-pyrrolidone): 30 % (w/v)
- % Solubility (w/v) ([1]; solvent PEG 300): 2.5 % (w/v)
- % Solubility (w/v) ([1]; solvent PVA): 0 % (w/v)
- % Solubility (w/v) ([1]; solvent Pluronic L44): 3 % (w/v)
- % Solubility (w/v) ([1]; solvent Propylene glycol): 0 % (w/v)
- % Solubility (w/v) ([1]; solvent Pyrrolidone): 20 % (w/v)
- % Solubility (w/v) ([1]; solvent Refined corn oil): 0 % (w/v)
- Stability in storage of curcumin in PEG formulations [2]: comparatively high stability in storage
